# According to publication PMC5554220, “A Novel Aldosterone Antagonist Limits Renal Injury in 5/6 Nephrectomy” (Scientific Reports, 2017):
# Experiments:
# Nx rats = assay: Preliminary experiments to determine the doses of Eple and Ly; assay type: in vivo
# Method: Preliminary experiments were performed to exclude the possibility that any differences between Eple and Ly, both in monotherapy and as add-ons to L, were simply due to the use of inadequately low doses of either compound. In the first set of experiments, Nx rats received Eple at the recommended dose of 85 mg/kg, and at 150 mg/kg, higher than in most studies reported so far. […] Other Nx rats received Ly at either 12 mg/kg (the recommended dose) or 20 mg/kg. […] Based on these preliminary results, we set the doses of Eple and Ly at 150 mg/kg and 20 mg/kg, respectively.
# [1] = tested on: rats with 5/6 renal ablation (Nx); assay: Protocol 2 (late treatment), 5/6 renal ablation (Nx); assay type: in vivo, male Munich-Wistar rats
# Description: (§1) One-hundred forty-five adult male Munich-Wistar rats, obtained from a local facility at the Faculty of Medicine, University of São Paulo, weighing between 220 and 250 g, were used in this study. All experimental procedures were approved by the local Research Ethics Committee (Comissão de Ética para Análise de Projetos de Pesquisa do Hospital das Clínicas da Faculdade de Medicina da Universidade de São Paulo, CAPPesq, process n° 0905/09), and carried out following strictly our institutional guidelines and current international standards for manipulation and care of laboratory animals. Body weights and general conditions were assessed daily. Five-sixths renal ablation (Nx) was performed as a single-step procedure under anesthesia with ketamine 50 mg/kg and xylazine 10 mg/kg im. After ventral laparotomy, the right kidney was excised and two or three branches of the left renal artery were ligated, so as to promote infarction of two-thirds of the left kidney. The operation was invariably well tolerated. Sham-operated rats underwent anesthesia and manipulation of the renal pedicles without removal of renal mass. After surgery, rats received enrofloxacin and, upon recovery, had free access to tap water and regular rodent chow containing 0.5 Na and 22% protein (Nuvital Labs, Curitiba, Brazil), and were kept at 23 ± 1 °C and 60 ± 5% relative air humidity, under an artificial 12–12 hour light/dark cycle. Rats were then treated following two different experimental protocols (described later).
# In Protocol 2, adult male Munich-Wistar rats were subjected to Nx as described earlier, and left untreated for two months. At this time, TCP and UalbV were assessed as described earlier. Rats with TCP ≤ 170 mmHg or UalbV ≤ 40 mg/day were excluded from the study. The remaining […] Nx rats were divided into four experimental groups: Nx + V (N = 14), untreated Nx rats; Nx + L (N = 15), receiving oral L, 50 mg/kg in drinking water; Nx + L + Eple (N = 14), receiving L and Eple (N = 14), 150 mg/kg/day; and Nx + L + Ly (N = 14), receiving L and Ly (20 mg/kg/day) as described before. A group of S rats (N = 16) was also included. All groups were followed for 90 days after treatments were started (150 days after nephrectomy), with monthly measurement of TCP and UalbV. At the end of this period, rats were anesthetized, blood was collected, and the renal tissue was perfusion-fixed and prepared for histomorphometric and immunohistochemical examination in the same manner as for Protocol 1.
# (§2) Histomorphometric analysis was performed blindly by two independent observers. The extent of glomerular injury was estimated, in PAS-stained sections, by determining the percentage of glomeruli with sclerotic lesions. The fraction of the renal cortical area occupied by interstitial tissue (%INT) was estimated in 25 consecutive microscopic fields of Masson-stained sections by a point-counting technique, at a final magnification of 200X, under a 144-point grid.
# Immunohistochemistry was performed on 4-μm-thick sections, mounted on glass slides precoated with 2% silane. Sections were deparaffinized and rehydrated by conventional techniques, then heated in citrate buffer for antigen retrieval and incubated overnight with the primary antibody at 4 °C (no antibody in negative control experiments). Primary antibodies used were: monoclonal mouse anti-rat ED-1 (Serotec, Oxford, UK); polyclonal rabbit anti-human AngII (Peninsula Laboratories, San Carlos, CA); and polyclonal rabbit anti-collagen I (Abcam, Cambridge, UK).
# For ED-1 detection, sections were preincubated with 5% normal rabbit serum to prevent nonspecific binding, then incubated overnight at 4 °C with the primary antibody diluted in BSA at 1%. […]
# [2] = tested on: rats with 5/6 renal ablation (Nx); assay: Protocol 1 (early treatment), 5/6 renal ablation (Nx); assay type: in vivo, male Munich-Wistar rats
# Description: as §1
# In this first protocol, Nx rats were divided into groups: NX + V (N = 8), receiving vehicle; NX + Eple (N = 8), receiving oral (mixed with the chow) Eple, 150 mg/kg/day; and Nx + Ly (N = 8), receiving oral Ly, 20 mg/kg/day. A group of sham-operated rats (S, N = 7) was also studied. Treatments were started 24 h after surgery. Rats were followed during 60 days, with determination of TCP and UalbV on Days 30 and 60. TCP was assessed with an optoelectronic automated device (Visitech Systems, Apex, NC), after rats had been preconditioned so as to remain calm during the procedure. UalbV was measured with a conventional immunodiffusion technique. On Day 60, rats were anesthetized as described before, and blood was collected from the abdominal aorta for determination of serum creatinine, serum K^+, PRA and PAC. The remnant kidney was then perfusion-fixed with Duboscq-Brazil solution after a brief washout with saline to remove blood from renal vessels, and prepared for histomorphometric and immunohistochemical analyses using conventional sequential techniques.
# as §2
# PRA and PAC were determined using commercially available radioimmunoassay kits (Renin Active IRMA and Aldosterone Active RIA, Beckman Coulter, Carlsbad, CA).
# [3] = target: T1, human glucocorticoid receptor (hGR) (Homo sapiens, UniProt P04150); assay: Radioligand binding, hGR expressed in HEK293 cells; settings: hGR expressed in HEK293 cells; read-out: Mean Ki ± SEM hGR*
# T1 construct: expressed in transfected cells; host or cells: HEK293 cells
# T1 sequence (P04150 1-777): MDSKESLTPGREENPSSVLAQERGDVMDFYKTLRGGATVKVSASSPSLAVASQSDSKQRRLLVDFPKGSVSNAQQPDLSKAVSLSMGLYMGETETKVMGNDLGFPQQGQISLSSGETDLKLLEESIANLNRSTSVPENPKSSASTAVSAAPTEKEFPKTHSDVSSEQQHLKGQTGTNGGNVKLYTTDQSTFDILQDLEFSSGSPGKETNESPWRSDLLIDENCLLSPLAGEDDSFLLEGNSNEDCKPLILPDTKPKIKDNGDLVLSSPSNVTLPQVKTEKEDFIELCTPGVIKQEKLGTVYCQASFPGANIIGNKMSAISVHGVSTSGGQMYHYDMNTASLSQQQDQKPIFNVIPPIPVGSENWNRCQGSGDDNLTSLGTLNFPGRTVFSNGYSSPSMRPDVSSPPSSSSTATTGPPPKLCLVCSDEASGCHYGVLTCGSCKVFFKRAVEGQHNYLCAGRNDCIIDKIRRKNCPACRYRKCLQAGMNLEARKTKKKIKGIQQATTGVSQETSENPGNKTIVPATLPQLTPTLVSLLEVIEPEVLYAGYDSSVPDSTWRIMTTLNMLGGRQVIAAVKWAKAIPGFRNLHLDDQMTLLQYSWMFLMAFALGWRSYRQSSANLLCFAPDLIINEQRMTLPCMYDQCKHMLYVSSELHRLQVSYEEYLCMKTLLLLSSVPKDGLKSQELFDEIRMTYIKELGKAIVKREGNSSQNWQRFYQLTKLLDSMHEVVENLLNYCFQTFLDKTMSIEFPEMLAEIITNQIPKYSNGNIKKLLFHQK
# Method: Affinity of ligands to the soluble receptor was determined using vacuum filtration methods, preparing soluble receptors in 96-well Falcon polystyrene plates (BD Biosciences, Bedford, MA) in a total volume of 250 μl. The hMR Sf9 lysate (approximately 20–25 μg protein in 20 μl) was incubated in the absence or presence of competing ligands with 10 μl of [1,2,6,7-3H] […] Binding studies for ligands for hPR and hAR were determined using [1,2,6,7-3H(N)] Progesterone (specific activity 103 Ci/mmol, at a final concentration 0.5 nM; NET381, NEN/Perkin Elmer Life Sciences, Boston, MA) and [17α-methyl-3H] Mibolerone, an enzymaticaly stable analog of testosterone (specific activity 76.8 Ci/mmol, final concentration 0.3 nM; NET919, NEN), respectively. Specific binding of 3H-progesterone for hPR and 3H-mibolerone for hAR was determined in the presence and absence of 1 μM mifepristone. Inhibition constants (Ki), were determined either from the Cheng-Prusoff equation[32], or directly using non-linear regression curve fitting to a three-parameter one-site competitive equation. Ki values obtained from individual concentration response curves were reported as the mean ± SEM. Protein was measured using colorimetric detection and quantification of bicinchoninic acid (BCA Protein Assay, Pierce, Rockford, IL). Cos-7L cells were cotransfected with expression vectors and a reporter plasmid responsive to all 3 nuclear hormone receptors. pBluescript II SK (+) (Stratagene, San Diego, CA) was included as a source of carrier DNA. The number of repetitions of full concentration response curves (n) represents values from at least two independent experiments for each condition. Concentration response curves were analyzed statistically using a four-parameter logistic equation (Hill equation for sigmoid curves). Similar methodology was adopted for the human glucocorticoid receptor (hGR) expressed in HEK293 cells.
SMILES,"Maximal nontoxic dose, defined by stunting of body growth (Nx rats)",Dose-response effect on the parameters studied (Nx rats; Eple 85 mg/kg vs 150 mg/kg),PRA (Nx rats; Eple 150 mg/kg dose vs 85 mg/kg),"Body growth (Nx rats; Eple, dose higher than 150 mg/kg)",Plasma renin activity (PRA) ([1]; Day 150),"Albumin excretion rate (UalbV) ([2]; 60 days after ablation, Eple 150 mg/kg/day, Ly 20 mg/kg/day oral)",Fractional cortical interstitial area ([2]; Day 60),Left kidney weight corrected for body weight (renal hypertrophy) ([2]; Day 60),Plasma aldosterone concentration (PAC) ([2]; Day 60),"Plasma K+ levels ([2]; Day 60, versus Nx + V)","Tail-cuff pressure (TCP) ([2]; Eple 150 mg/kg/day, Ly 20 mg/kg/day oral)",Ki [3],Density of interstitial AngII+ cells ([1]; Day 150),Interstitial macrophage infiltration ([1]; Day 150),Percent cortical area occupied by collagen I (interstitial fibrosis) ([1]; Day 150),Percentage of glomeruli with sclerotic lesions (GS%) ([1]; Day 150),Plasma aldosterone concentration (PAC) ([1]; Day 150),Albumin excretion rate (UalbV) ([1]; treatment Day 60-150),"Tail-cuff pressure (TCP) ([1]; treatment Day 60-150, L 50 mg/kg, Eple 150 mg/kg/day, Ly 20 mg/kg/day)"
"COC(=O)[C@@H]1CC2=CC(=O)CC[C@]2(C)[C@@]23O[C@@H]2C[C@@]2(C)[C@@H](CC[C@@]24CCC(=O)O4)[C@H]13 [Eplerenone, eplerenone, reference compound]",150 mg/kg,No dose-response effect was observed,slight increase in PRA,body growth limitation,"significantly elevated compared to S, Nx and Nx + L","slightly, but not significantly, attenuated",only slightly attenuated,no effect on renal weight,exacerbated hyperaldosteronemia,not aggravated,partially prevented the elevation of TCP,,,,,,,,
"CC(=O)S[C@@H]1CC2=CC(=O)CC[C@]2(C)[C@H]2CC[C@@]3(C)[C@@H](CC[C@@]34CCC(=O)O4)[C@H]12 [Spironolactone, spironolactone, reference compound]",,,,,,,,,,,,33 ± 7 nM,,,,,,,
"CCCCc1nc(Cl)c(CO)n1Cc1ccc(-c2ccccc2-c2nn[nH]n2)cc1 [L, losartan]",,,,,normalized PRA,,,,,,,,not significantly altered,numerically but not significantly reduced,failed to reduce significantly,partly prevented GS,significantly reduced PAC compared to S or Nx + V,prevented the progression of albuminuria,mitigated
